# PubChem BioAssay AID2060895 (Molecular Pharmacology Branch, DTP, NCI, 2025)
# Tested on: PDC 899932-113-R3-J6 complex spheroid viability
# Assay: Anticancer human tumor 899932-113-R3-J6-PDC patient-derived melanoma cell line growth inhibition [RAS]
# Settings: for IC50: curve of first compound; for viability, T/C: stronger effect = lower value
# In short: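 Agents were tested in combination matrices in half-log decrements from a top concentration at or near clinical Cmax (10 microM if undetermined). Targets were multi-cell spheroids of tumour lines plus HUVEC and MSC stromal cells.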
# 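Wherever viability, T/C is given: spheroids exposed to agents for seven days before readout; 100% = DMSO vehicle control wells.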
compound,measurement,setting,value
CCc1c2c(nc3ccc(O)cc13)-c1cc3c(c(=O)n1C2)COC(=O)[C@]3(O)CC + C#Cc1c(F)ccc2cc(O)cc(-c3ncc4c(N5CC6CCC(C5)N6)nc(OCC56CCCN5CC(F)C6)nc4c3F)c12,IC50,second compound 0.0316 µM,11.8 nM
same,IC50,second compound 0.1 µM,20.8 nM
same,IC50,second compound 0.316 µM,36.6 nM
same,IC50,second compound 1 µM,37.1 nM
same,IC50,second compound 3.16 µM,33.1 nM
same,IC50,second compound 10 µM,32.2 nM
same,"viability, T/C","second compound 0.0316 µM, first compound 0.000949 µM",108%
same,"viability, T/C","second compound 0.0316 µM, first compound 0.003 µM",63.5%
same,"viability, T/C","second compound 0.0316 µM, first compound 0.00949 µM",56.8%
same,"viability, T/C","second compound 0.0316 µM, first compound 0.03 µM",45.1%
same,"viability, T/C","second compound 0.0316 µM, first compound 0.0949 µM",41.5%
same,"viability, T/C","second compound 0.0316 µM, first compound 0.3 µM",34.2%
same,"viability, T/C","second compound 0.1 µM, first compound 0.000949 µM",85.7%
same,"viability, T/C","second compound 0.1 µM, first compound 0.003 µM",69.6%
same,"viability, T/C","second compound 0.1 µM, first compound 0.00949 µM",50.6%
same,"viability, T/C","second compound 0.1 µM, first compound 0.03 µM",50.2%
same,"viability, T/C","second compound 0.1 µM, first compound 0.0949 µM",44.5%
same,"viability, T/C","second compound 0.1 µM, first compound 0.3 µM",33.2%
same,"viability, T/C","second compound 0.316 µM, first compound 0.000949 µM",81.2%
same,"viability, T/C","second compound 0.316 µM, first compound 0.003 µM",74.3%
same,"viability, T/C","second compound 0.316 µM, first compound 0.00949 µM",54%
same,"viability, T/C","second compound 0.316 µM, first compound 0.03 µM",54%
same,"viability, T/C","second compound 0.316 µM, first compound 0.0949 µM",42.6%
same,"viability, T/C","second compound 0.316 µM, first compound 0.3 µM",35.2%
same,"viability, T/C","second compound 1 µM, first compound 0.000949 µM",91.7%
same,"viability, T/C","second compound 1 µM, first compound 0.003 µM",74%
same,"viability, T/C","second compound 1 µM, first compound 0.00949 µM",63%
same,"viability, T/C","second compound 1 µM, first compound 0.03 µM",52.2%
same,"viability, T/C","second compound 1 µM, first compound 0.0949 µM",43.3%
same,"viability, T/C","second compound 1 µM, first compound 0.3 µM",32.2%
same,"viability, T/C","second compound 3.16 µM, first compound 0.000949 µM",99%
same,"viability, T/C","second compound 3.16 µM, first compound 0.003 µM",74.5%
same,"viability, T/C","second compound 3.16 µM, first compound 0.00949 µM",60%
same,"viability, T/C","second compound 3.16 µM, first compound 0.03 µM",54.2%
same,"viability, T/C","second compound 3.16 µM, first compound 0.0949 µM",44.9%
same,"viability, T/C","second compound 3.16 µM, first compound 0.3 µM",33.5%
same,"viability, T/C","second compound 10 µM, first compound 0.000949 µM",101%
same,"viability, T/C","second compound 10 µM, first compound 0.003 µM",71%
same,"viability, T/C","second compound 10 µM, first compound 0.00949 µM",66.8%
same,"viability, T/C","second compound 10 µM, first compound 0.03 µM",47.3%
same,"viability, T/C","second compound 10 µM, first compound 0.0949 µM",47.9%
same,"viability, T/C","second compound 10 µM, first compound 0.3 µM",33.9%
NC1c2ccccc2OC12CCN(c1cnc3c(N4CCCc5ncccc54)n[nH]c3n1)CC2 (stereo not given) + C=CC(=O)N1CCN(c2nc(OCC3CCCN3C)nc3c(F)c(-c4nc(N)cc(C)c4C(F)(F)F)c(Cl)cc23)C(C)C1,IC50,second compound 0.00316 µM,> 10000 nM
same,IC50,second compound 0.01 µM,> 10000 nM
same,IC50,second compound 0.0316 µM,> 10000 nM
same,IC50,second compound 0.1 µM,> 10000 nM
same,IC50,second compound 0.316 µM,> 10000 nM
same,IC50,second compound 1 µM,> 10000 nM
same,"viability, T/C","second compound 0.00316 µM, first compound 0.0316 µM",113%
same,"viability, T/C","second compound 0.00316 µM, first compound 0.1 µM",107%
same,"viability, T/C","second compound 0.00316 µM, first compound 0.316 µM",114%
same,"viability, T/C","second compound 0.00316 µM, first compound 1 µM",113%
same,"viability, T/C","second compound 0.00316 µM, first compound 3.16 µM",108%
same,"viability, T/C","second compound 0.00316 µM, first compound 10 µM",89.9%
same,"viability, T/C","second compound 0.01 µM, first compound 0.0316 µM",108%
same,"viability, T/C","second compound 0.01 µM, first compound 0.1 µM",104%
same,"viability, T/C","second compound 0.01 µM, first compound 0.316 µM",115%
same,"viability, T/C","second compound 0.01 µM, first compound 1 µM",102%
same,"viability, T/C","second compound 0.01 µM, first compound 3.16 µM",115%
same,"viability, T/C","second compound 0.01 µM, first compound 10 µM",106%
same,"viability, T/C","second compound 0.0316 µM, first compound 0.0316 µM",116%
same,"viability, T/C","second compound 0.0316 µM, first compound 0.1 µM",107%
same,"viability, T/C","second compound 0.0316 µM, first compound 0.316 µM",115%
same,"viability, T/C","second compound 0.0316 µM, first compound 1 µM",125%
same,"viability, T/C","second compound 0.0316 µM, first compound 3.16 µM",121%
same,"viability, T/C","second compound 0.0316 µM, first compound 10 µM",99.7%
same,"viability, T/C","second compound 0.1 µM, first compound 0.0316 µM",107%
same,"viability, T/C","second compound 0.1 µM, first compound 0.1 µM",106%
same,"viability, T/C","second compound 0.1 µM, first compound 0.316 µM",114%
same,"viability, T/C","second compound 0.1 µM, first compound 1 µM",114%
same,"viability, T/C","second compound 0.1 µM, first compound 3.16 µM",102%
same,"viability, T/C","second compound 0.1 µM, first compound 10 µM",104%
same,"viability, T/C","second compound 0.316 µM, first compound 0.0316 µM",110%
same,"viability, T/C","second compound 0.316 µM, first compound 0.1 µM",116%
same,"viability, T/C","second compound 0.316 µM, first compound 0.316 µM",112%
same,"viability, T/C","second compound 0.316 µM, first compound 1 µM",111%
same,"viability, T/C","second compound 0.316 µM, first compound 3.16 µM",115%
same,"viability, T/C","second compound 0.316 µM, first compound 10 µM",97.1%
same,"viability, T/C","second compound 1 µM, first compound 0.0316 µM",114%
same,"viability, T/C","second compound 1 µM, first compound 0.1 µM",105%
same,"viability, T/C","second compound 1 µM, first compound 0.316 µM",119%
same,"viability, T/C","second compound 1 µM, first compound 1 µM",113%
same,"viability, T/C","second compound 1 µM, first compound 3.16 µM",112%
same,"viability, T/C","second compound 1 µM, first compound 10 µM",86.1%
CCc1c2c(nc3ccc(O)cc13)-c1cc3c(c(=O)n1C2)COC(=O)[C@]3(O)CC,"viability, T/C",compound 0.000949 µM,94.3% [middle of 4 runs]
same,"viability, T/C",compound 0.003 µM,69.3% [middle of 4 runs]
same,"viability, T/C",compound 0.00949 µM,58.9% [middle of 4 runs]
same,"viability, T/C",compound 0.03 µM,48.3% [middle of 4 runs]
same,"viability, T/C",compound 0.0949 µM,42.1% [middle of 4 runs]
same,"viability, T/C",compound 0.3 µM,32.8% [middle of 4 runs]
